Laboratory results as given in PubChem BioAssay AID1419 (Emory University Molecular Libraries Screening Center, 2008).
The source made the active and inactive calls. How the calls were made is not given here.

Experiment: blockers of an Epstein-Barr virus protein-peptide interaction – biochemical, fluorescence polarization, dose response (AID 1419)
Details: cell-free protein-peptide binding, 2 h; for fold change: measured here: P channel fold over control, at 54 µM

| Structure (SMILES) | IC50 | fold change |
| --- | --- | --- |
| CCOC(=O)C1C(=O)C=C(/C=C/c2ccc(N(C)C)cc2)CC1c1ccccc1 (stereo unspecified) | > 54 µM (inactive) | 7.93 |
| COc1cc(CCC(=O)N2CCN(c3ncccn3)CC2)cc(OC)c1OC | > 54 µM (inactive) | 1.05 |
| CCN(CC)c1nc2ccccc2nc1C(C#N)C(=O)NCCc1ccccc1 (stereo unspecified) | 1.37 µM | 22 |
| O=C1/C(=C/c2ccco2)Oc2c1ccc(O)c2CN1CCCCC1 | 1.93 µM | 22.1 |
| CCCCOc1ccc(-c2cc(C(F)(F)F)c(C#N)c(SCC(=O)O)n2)cc1 | 6.68 µM | 4 |
| CSC1=NSC2=NC(=O)/C(=C\c3coc4ccccc4c3=O)C(=N)N12 | 2.74 µM | 82.6 |
| O=c1cc(-c2ccccc2)nc2c(-c3ccccc3)c(C(F)(F)F)[nH]n12 | > 54 µM (inactive) | 1.02 |
| O=c1[nH]c(=S)n(-c2ccc(Br)cc2)c(O)c1C=Nc1ccc(N2CCOCC2)cc1 | 3.54 µM | 5.78 |
| COc1ccc(N/C=C2\C(=O)CCc3c2oc2cc(Cl)c(O)c(Cl)c32)cc1 | > 54 µM (inactive) | 11.2 |
| COc1ccc(C(=O)NC2(C(F)(F)F)C(=O)N(Cc3ccco3)C3=C2C(=O)CC(C)(C)C3)cc1OC (stereo unspecified) | > 54 µM (inactive) | 1.14 |
| CCOCCCNc1nc2c(C)cccn2c(=O)c1/C=C1\SC(=S)N(CC(C)C)C1=O | > 54 µM (inactive) | 1.58 |
| O=C1/C(=N\S(=O)(=O)c2cccs2)C([n+]2cccc(Cc3ccccc3)c2)=C([O-])c2ccccc21 | 7.66 µM | 13.9 |
| CCOc1cc(-c2ccc(N)c(OCC)c2)ccc1N | 1.52 µM | 5.61 |
| CCOc1ccc(C2CC(c3c(O)c4ccccc4oc3=O)=NN2c2ccccc2)cc1OC (stereo unspecified) | 2.06 µM | 49.3 |
| Cc1noc(/C=C/c2ccc(-c3ccccc3Cl)o2)c1[N+](=O)[O-] | 13.2 µM | 7.6 |
| Cc1cc(=O)oc2c3c4c(cc12)OCCN4CCC3 | 3.95 µM | 3.5 |
| CC(C)Oc1ccc(-c2nn(-c3ccccc3)cc2/C=c2\sc3ncnn3c2=O)cc1 | 1.43 µM | 14.3 |
| NC(=O)c1sc2nc3c(c(-c4ccccc4)c2c1N)CCC3 | > 54 µM (inactive) | 0.963 |
| Cc1ccc2[nH]c(O)c(N=NC(=O)c3ccc(NS(=O)(=O)c4cccs4)cc3)c2c1 | > 54 µM (inactive) | 0.957 |
| O=[N+]([O-])c1ccccc1/C=C/C=N/n1c(-c2ccc(Cl)cc2)n[nH]c1=S | > 54 µM (inactive) | 0.947 |
| Cc1cc(N2CCCC2)ccc1C=C(C#N)C#N | 1.86 µM | 15.3 |
| CCN(CC)C(=O)/C(=C\c1ccc(Br)cc1)NC(=O)c1ccccc1OC | 4.67 µM | 1.15 |
| COc1ccc(C2C(C(C)=O)=C(C)N=c3s/c(=C\c4cc(C)n(C)c4C)c(=O)n32)c(OC)c1 (stereo unspecified) | 4.29 µM | 11.8 |
| Cc1ccc(NC(=O)CN2C(=O)/C(=C3\SC(=S)N(C4CCS(=O)(=O)C4)C3=O)c3ccccc32)cc1 (stereo unspecified) | 20.4 µM | 0.67 |
| NC(=O)c1cc2ccc(O)cc2oc1=NCc1ccccc1 | < 0.42 µM | 34.3 |
| O=c1[nH]c2cc3c(cc2cc1CN(Cc1nnnn1CC1CCCO1)C1CCCCC1)OCO3 (stereo unspecified) | 51.6 µM (inactive) | 1.73 |

| Structure (SMILES) | IC50 | fold change |
| --- | --- | --- |
| O=C(COc1ccccc1Cl)c1ccc[nH]1 | > 54 µM (inactive) | 1.08 |
| COc1ccc(NC(=O)CSc2ccc3c4c(cccc24)C(=O)c2ccccc2-3)cc1 | 3.14 µM | 11 |
| COc1cc(C=C2C(=O)c3ccccc3C2=O)cc(OC)c1OC | > 54 µM (inactive) | 1.06 |
| CCN(CC)C(=O)CC(c1cc(OC)c(OC)c(OC)c1)c1c(OC)cc(OC)c2c(-c3ccccc3)cc(=O)oc12 (stereo unspecified) | 33.8 µM (inactive) | 1.01 |
| CCN(CC)S(=O)(=O)c1ccc(C(=O)/C=C/c2ccc(-c3ccc([N+](=O)[O-])cc3)o2)cc1 | 2.97 µM | 12.8 |
| CC(=O)c1ccc(N2C(=O)C3C(C2=O)C(C(=O)c2ccc(Cl)cc2)N2CCCC32)cc1 (stereo unspecified) | 7.19 µM | 8.74 |
| CCOc1cc(/C=N/NC(=O)c2ccc(-c3csc(Nc4ccc(C)cc4)n3)cc2)ccc1OCC(=O)O | 14.8 µM | 1.08 |
| Cc1nn(-c2ccccc2)c(N2CCCC2)c1/C=C1\N=C(c2ccccc2)OC1=O | 25.5 µM | 3.5 |
| CN(C)c1ccc2c3c(cccc13)C(=O)N(c1ccccc1)C2=O | 4.05 µM | 11 |
| CSC1=NSC2=NC(=O)/C(=C/c3coc4ccccc4c3=O)C(=N)N12 | 1.78 µM | 106 |
| CCCn1c(SCCc2ccccc2)nc2c1c(=O)[nH]c(=O)n2C | > 54 µM (inactive) | 0.953 |
| COc1ccc(N=Cc2c(O)n(Cc3ccccc3)c(=S)[nH]c2=O)c(OC)c1 | > 54 µM (inactive) | 3.88 |
| Cc1c(C(=O)NCCSCc2c(F)cccc2Cl)cnn1-c1ccc(Cl)cc1 | > 54 µM (inactive) | 1.06 |
| Cc1ccc(C2C(C(=O)c3cccs3)=C(O)C(=O)N2c2nnc(C)s2)cc1 (stereo unspecified) | 0.9 µM | 3.94 |
| CN(C)c1ccc(/C=N/NC(=O)c2cnc3ccccc3c2)cc1 | 18.6 µM | 3.11 |
| CCOC(=O)c1c(/N=C/c2c(O)n(-c3ccc(F)cc3)c(=S)[nH]c2=O)sc2c1CCCC2 | 22.8 µM | 3.7 |
| Cc1[nH]c(=O)[nH]c(=O)c1CSCC(=O)OCC(=O)Nc1ccccn1 | > 54 µM (inactive) | 1.09 |
| COc1ccccc1NC(=O)c1sc2nc(Cc3ccccc3)cc(C(F)(F)F)c2c1N | 1.71 µM | 10.7 |
| COc1ccc(/C=N/N=C2/CC(C)(C)Cc3n[nH]c(=O)cc32)cc1 | 4.15 µM | 3.61 |
| COc1ccc(C(CC(=O)N2CCCC2)c2c(OC)cc(OC)c3c(-c4ccccc4)cc(=O)oc23)cc1 (stereo unspecified) | > 54 µM (inactive) | 0.95 |
| O=C1CCNc2c(Cl)cc(Cl)cc21 | 11.1 µM | 2.51 |
| C=CCn1c(=O)[nH]c2nc3cc(N=CN(C)C)c(C)cc3nc2c1=O | < 0.42 µM | 40 |
| N#CC1=C(N)Oc2ccc3ccc(O)cc3c2C1c1ccsc1 (stereo unspecified) | 1.97 µM | 2.08 |
| O=Cc1ccc2oc3nc4n(c(=O)c3c(=O)c2c1)CCCS4 | > 54 µM (inactive) | 1.03 |
| Cc1ccc(N=Nc2c(N)[nH]n3c(=O)cc(-c4ccccc4)nc23)cc1 | > 54 µM (inactive) | 1.02 |
| Oc1c(Cl)cc(Cl)c(Cl)c1Cc1c(O)c(Cl)cc(Cl)c1Cl | 5.97 µM | 0.987 |

| Structure (SMILES) | IC50 | fold change |
| --- | --- | --- |
| COc1cc(/C=C2\SC(=O)N(Cc3ccc(Cl)cc3)C2=O)cc([N+](=O)[O-])c1O | 24.9 µM | 1.04 |
| Cc1[nH]c(=O)[nH]c(=O)c1S(=O)(=O)N1CCN(c2ccccc2F)CC1 | > 54 µM (inactive) | 1.04 |
| O=c1oc2ccccc2cc1-c1nc(-c2cccs2)cs1 | 2.96 µM | 25.8 |
| N#C/C(=C\C1=C(N2CCOCC2)C(=C/c2cccc([N+](=O)[O-])c2)/CC1)C(=O)Nc1ccccc1F | 3.64 µM | 2.26 |
| COC(=O)CCCC1=CC2=CC(=O)C(C)(OC(=O)c3cccs3)C(=O)C2=CN1c1cccc(C#N)c1 (stereo unspecified) | > 54 µM (inactive) | 1.49 |
| CCOC(=O)C(=O)/C(=C\N(C)C)c1onc(-c2ccccc2)c1C(=O)OC | > 54 µM (inactive) | 1.05 |
| COC(=O)c1ccccc1NC(=O)Nc1ncccc1C | > 54 µM (inactive) | 0.937 |
| CCn1c(O)c(C=Nc2ccc(N3CCOCC3)cc2)c(=O)n(CC)c1=S | 4.91 µM | 36.6 |
| CCCCC1=CC2=C(c3ccco3)C(=O)C(C)(OC(=O)c3ccc(OC)cc3)C(=O)C2=CN1Cc1ccccc1 (stereo unspecified) | > 54 µM (inactive) | 1.7 |
| O=Cc1ccc2noc(-c3ccc(F)cc3)c2c1 | 1.47 µM | 5.46 |
| CCSc1nnc(NC(=O)C(C(F)(F)F)C(F)(F)F)s1 | > 54 µM (inactive) | 0.583 |
| O=C(Cn1cnc2scc(-c3cccc([N+](=O)[O-])c3)c2c1=O)NCc1ccco1 | > 54 µM (inactive) | 1.04 |
| CC1CN(c2nc3ccccc3nc2C(C#N)C(=O)NCc2ccc3c(c2)OCO3)CC(C)O1 (stereo unspecified) | 5.37 µM | 4.35 |
| COc1ccc(-c2nnc(Nc3ccc(S(=O)(=O)Nc4nccs4)cc3)c3ccccc23)cc1 | > 54 µM (inactive) | 1.09 |
| CS(=O)(=O)N1N=C(c2ccccc2)CC1c1ccc2c(c1)OCO2 (stereo unspecified) | 9.83 µM | 4.93 |
| COc1ccc(OC)c(C2C3CN(C(C)C)CC=C3C(C#N)=C(N)C2(C#N)C#N)c1 (stereo unspecified) | 5.91 µM | 3.96 |
| CCOC(=O)Cn1c2ccc(OC)cc2c2nc3ccccc3nc21 | 0.79 µM | 6.57 |
| O=C(NC(NC(=S)Nc1ccc(Cl)cc1Cl)C(Cl)(Cl)Cl)c1cccc([N+](=O)[O-])c1 (stereo unspecified) | > 54 µM (inactive) | 0.953 |
| O=C1C2C3C=CC(C3=C(c3ccccc3)c3ccccc3)C2C(=O)N1Cc1ccccc1 (stereo unspecified) | > 54 µM (inactive) | 0.99 |
| CCOc1ccc2[nH]c(=O)c(CN(CC3COCCO3)C(=O)C3CC3)cc2c1 (stereo unspecified) | > 54 µM (inactive) | 1.04 |
| CCn1c(CSc2nnc3ccccn23)nc2cc(C(=O)O)ccc21 | 4.04 µM | 1.93 |
| Cn1c(=O)c(N)c2c3c(c(Br)ccc31)C(=O)c1ccccc1-2 | < 0.42 µM | 98.9 |
| N#C/C(=C\C=C\c1ccccc1)c1nc(-c2ccc3c(c2)OCO3)cs1 | 1.49 µM | 14.2 |
| C=CCn1c(O)c(N=Nc2ccccc2C)c2ccccc21 | 14.9 µM | 12.4 |
| Cn1c(=O)c(Nc2ccc(O)cc2)c2c3c(cccc31)C(=O)c1ccccc1-2 | < 0.42 µM | 3.86 |
| C=CCN1C(=O)/C(=C\C=C2\N(C)c3ccccc3C2(C)C)SC1=S | 5.07 µM | 8.39 |
